Series [1] in a line: CAT-like activity: O2 pressure from hydrogen peroxide dismutation. It is filed as biochemical. Details: Rmax: unit not given here. The settings on record: [catalyst] = 200 μM, [H2O2] = 20–30 mM in BBS 50 mM, pH = 7.8. As for the experimental part: The studied catalase-like activity of the complexes was evaluated by measuring the pressure resulting from the oxygen produced during the dismutation of the hydrogen peroxide. For this analysis, a borate-based buffer system (BBS 50 mM, pH 7.8) was utilized to avoid the competitive binding of phosphate anions.
Catalytic measurement assays were conducted using a Varian Cary 100 spectrophotometer with a 3 mL quartz cuvette (1 cm path length) for evaluating SOD-like activity. For the assessment of peroxidase-mimicking activity, a Varian Cary 50 instrument and identical cuvettes were utilized. To monitor the CAT-like activity, a 25 mL vial, equipped with a septum for solution injection, was used as a reactor and connected to a pressure transducer. […]
To monitor the CAT-like activity, a 25 mL vial was used as a reactor, connected to a pressure transducer and
a septum for the injection.

Series [2] can be described thus: UV–Vis monitoring of complex stability during H2O2 dismutation. The settings on record: complex 200 μM, H2O2 10 mM in BBS 50 mM pH 7.8. It counts as physicochemical. From the text: The reaction progression was monitored by UV–Vis to gather insights into the stability of the complexes during H2O2 dismutation (Figures S45–S48 in Supplementary Materials). Analyzing the spectra recorded for the systems derived from HL1 and HL5, it is possible to observe changes in the absorption bands. In the case of the mononuclear species containing HL1, the alteration in the absorption band takes place over a comparatively extended period, in agreement with the occurrence of the delay period previously noted. The intensity associated with the π→π * electronic transition progressively diminishes, coinciding with a rise in molecular oxygen generation. Such a trend implies structural reconfiguration within the coordination environment of the complex, which appears necessary to initiate the catalytic event. On the other hand, the characteristic absorption feature vanishes after 4 h as a result of the formation of radical species. The UV–Vis profile of the complex Cu(HL5)(ClO4)2 (Figure S46) undergoes a faster modification.
Figure S46: UV-Vis spectra of Cu(HL5)(ClO4)2 at time 0 (red) and after 7 h (light red). The colours variation represents an increment of 5 min from t=0 to t=15 min, of 15 min from t=15 to t= 45 min and 45 min from t= 45 to t=360 min.
Conditions: [Cu(HL5)(ClO4)2]= 200 uM, [H2O2]=10mM in BBS 50mM pH=7.8. Zoom: temporal trends compared to O2 (red) and Abs (light red) on the maximum absorption at 294 nm.
Figure S47: UV-Vis spectra of Cu2(L1)2(ClO4)2 at time 0 (blue) and after 24 hours (light blue). Every change of colors represents a temporal increase of 90 minutes. Conditions: [Cu2(L1)2(ClO4)2] = 200 µM, [H2O2] = 10 mM in BBS 50 mM, pH = 7.8. Zoom: temporal trends compared to O2 (blue) and Abs (light blue) on the maximum absorption at 288 nm.
Figure S48: UV-Vis spectra of Cu2(L5)2(ClO4)2 at time 0 (dark green) and after 24 hours (light green). Every change of colours represents a temporal increase of 90 minutes. Conditions: [Cu2(L5)2(ClO4)2] = 200 µM, [H2O2] = 10 mM in BBS 50 mM, pH = 7.8. […]

Series [3] can be described thus: SOD activity, indirect cytochrome C (CytC) assay, xanthine/xanthine oxidase. Conditions: [CytC] = 10 μM, pH = 7.8; for IC50: CytC assay, [xanthine] = 40 μM, [xanthine oxidase] = 0.0053 U/mL, phosphate buffer 50 mM; for Log (kcat): kcat(O2•−)=kCytC·[CytC]/IC50, kCytC=2.6×10^5 M^−1s^−1. It counts as biochemical. The method, then: To reduce uncertainty about the actual active species involved in the reaction, the catalytic investigations were made with the isolated species. The ability to catalyze superoxide dismutation was assessed using the indirect cytochrome C-based assay originally introduced by McCord and Fridovich. In this kind of test, the presence of a catalyst with SOD activity, acting as a scavenger for O2^•− and generated via a xanthine/xanthine oxidase system, prevents the electron transfer to cytochrome C (Cyt C) to form […].
Catalytic measurement assays were conducted using a Varian Cary 100 spectrophotometer with a 3 mL quartz cuvette (1 cm path length) for evaluating SOD-like activity. For the assessment of peroxidase-mimicking activity, a Varian Cary 50 instrument and identical cuvettes were utilized. To monitor the CAT-like activity, a 25 mL vial, equipped with a septum for solution injection, was used as a reactor and connected to a pressure transducer.

Series [4] is described as follows: Cyclic voltammetry of the Cu(II)/Cu(I) couple. Conditions: for ΔE: Epc − Epa; for ΔE / │ia/ic│ / E1/2: PBS pH 7.8; for │ia/ic│: peak current ratio; for E1/2 / Epa / Epc: vs NHE; for E1/2: E1/2=(Epc+Epa)/2; for Epa / Epc: PBS 10 mM, 150 mM NaCl, pH 7.8, 0.25 mM complex. It is filed as physicochemical. As for the experimental part: To assess this behavior, the corresponding redox potentials were measured by cyclic voltammetry (CV), offering key insights into the electron-transfer properties of the complexes. The metal ion redox potential should ideally lie between the potential for oxidation (−0.16 V vs. NHE) (Equation (1)) and reduction (0.89 V vs. NHE) of superoxide radicals (Equation (2)).(1) O2∙−→O2+e^− (2) O2∙−+e^−+H^+→H2O2
The key electrochemical parameters extracted from the cyclic voltammograms are summarized in Table 3, highlighting a similar redox behavior of the complexes with both ligands. However, the nature of the anion appears to influence the properties of the mononuclear species formed in situ, compared with the isolated complexes.
Cyclic voltammetry experiments were carried out using a BAS Cell C3 EC-epsilon potentiostat equipped with a conventional three-electrode system consisting of a glassy carbon working electrode (3 mm diameter, geometric surface 7 mm^2), a platinum wire counter electrode (CE), and a silver/silver chloride reference electrode (Ag/AgCl, 3 M KCl). Voltammograms were recorded in phosphate-buffered saline (PBS; 10 mM, 150 mM NaCl, pH 7.8) containing 0.25 mM of the complex. The measurements were performed within a potential window from −600 mV to +400 mV, employing various scan rates (50 mV/s, 100 mV/s, 200 mV/s, 400 mV/s, and 800 mV/s).

Series [5] is described as follows: Peroxidase activity: morin oxidation with H2O2. Conditions: after 16 h with H2O2; [Morin] = 0.16 mM, [Catalyst] = 1.6 μM, [H2O2] = 0.01 M, PBS 50 mM, pH 7.8. It counts as biochemical. The method, then: Since initial antioxidant evaluations were conducted without incorporating oxidizable substrates, it is therefore essential to assess the behavior of the complexes in the presence of organic substrates. To this aim, we employed two distinct categories of model substrate: morin and o-phenylenediamine (OPD). We evaluated the spectral changes during morin oxidation, i.e., absorbance decreases for the substrate (Figure 7 and Figures S50–S53 in the Supporting Materials) and increase for the 2,3-diaminephenazine (DAP), the product of the oxidative degradation of the OPD (Figures S55–S58 in the Supporting Materials).
Figure 7 Residual absorbance of morin at the maximum absorption (390 nm) after reaction of the complexes with H2O2 for 16 h. [Morin] = 0.16 mM, [Catalyst] = 1.6 μM, [H2O2] = 0.01 M, PBS buffer (50 mM), pH 7.8.
Peroxidase activity was evaluated via UV-Vis spectroscopy by monitoring the time-dependent absorbance changes of oxidized substrates in the presence of H₂O₂ and copper complexes. Two substrates were used: morin and o-phenylenediamine (OPD).
For morin, the oxidative degradation (Figure S49) was evidenced by a decrease in absorbance at 390 nm. […]
The reaction kinetics were monitored over 18 hours with spectra collected every 20 minutes (Figures S50–S53). […]
Figure S50: Absorbance variation of the morine, with the complex Cu(HL1)(ClO 4)2. […]

Each structure is given as a SMILES string. Marks after values point to notes of the source that are not given here. Where only a bound is given, the exact number is not on record here.

One may read the IC50 as the concentration that inhibits the measured activity by half. For `COc1cccc(CN(Cc2ccccn2)Cc2ccccn2)c1[O-].COc1cccc(CN(Cc2ccccn2)Cc2ccccn2)c1[O-].[Cu+2].[Cu+2].[O-][Cl+3]([O-])([O-])[O-].[O-][Cl+3]([O-])([O-])[O-]` [Cu2(L5)2(ClO4)2], the “Time (to maximum O2 production)” value in series [1] is on record as 950 min. In series [1] (triplicate, ±10% error), the O2 generated was 7.7 mmol/L and the Rmax amounted to 0.36. Also, in series [2], the “time in which the π→π* absorbance feature fades / changes” value was at most 90 min. Further, in series [3], half-maximal inhibition (IC50) was put at 1.28 µM and the “Log (kcat)” value is listed as 6.31 ^h. Also, in series [4], the ΔE is on record as −0.081 V, the “│ia/ic│” value was found to be 0.90, the E1/2 was −0.179 V and the Epa is −0.138 V. In series [4], the Epc is given as −0.219 V. In addition, the “residual absorbance of morin (390 nm)” value in series [5] was 40%.
For `COc1cccc(CN(Cc2ccccn2)Cc2ccccn2)c1O.[Cu+2].[O-][Cl+3]([O-])([O-])[O-].[O-][Cl+3]([O-])([O-])[O-]` [Cu(HL5)(ClO4)2], in series [1], the “Time (to maximum O2 production)” value turned out to be 1300 min. The O2 generated in series [1] (triplicate, ±10% error) is given as 9.8 mmol/L. In series [2], the “time in which the π→π* absorbance feature fades / changes” value is “approximately 60 min”. Further, in series [3], the IC50 was 1.04 µM and the “Log (kcat)” value was 6.41 ^h. For the same compound, in series [4], the ΔE was −0.106 V, the “│ia/ic│” value is listed as 0.52, the E1/2 was −0.149 V and the Epa is listed as −0.096 V. The Epc in series [4] is reported as −0.202 V. Besides, in series [5], the “residual absorbance of morin (390 nm)” value came out at 21%.

The record behind these values is paper PMC12388300, “The Chelating Abilities of Tertiary Amines with N-O-Donors Towards Cu(II) Ions and the Catalytic Properties of the Resulting Complexes” (Molecules, 2025).
